The source of these data is patent publication US8106197B2, “Aminoheteroaryl compounds as protein kinase inhibitors” (Pfizer Inc., priority 2003, dated 2012).

In this experiment the target is T1, HGFR (Homo sapiens, UniProt P08581).
T1 construct: purchased Upstate 14-526
Nature of the experiment: HGFR continuous-coupled spectrophotometric assay. Format: biochemical.

T1 sequence (P08581 974-1390 limits assumed): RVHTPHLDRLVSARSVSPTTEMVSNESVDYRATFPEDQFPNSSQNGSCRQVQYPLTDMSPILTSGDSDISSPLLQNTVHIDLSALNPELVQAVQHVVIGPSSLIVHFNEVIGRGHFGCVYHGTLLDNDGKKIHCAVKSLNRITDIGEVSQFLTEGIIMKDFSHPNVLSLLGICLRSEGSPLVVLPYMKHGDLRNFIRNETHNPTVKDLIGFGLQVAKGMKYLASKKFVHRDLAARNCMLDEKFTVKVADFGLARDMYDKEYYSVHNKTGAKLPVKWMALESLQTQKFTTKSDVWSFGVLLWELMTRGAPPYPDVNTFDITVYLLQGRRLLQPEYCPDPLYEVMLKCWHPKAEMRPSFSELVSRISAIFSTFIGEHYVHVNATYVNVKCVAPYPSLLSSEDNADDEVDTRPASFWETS

For `Nc1ncc(-c2ccc(C(=O)N3CCC(N4CCCC4)CC3)cc2)cc1OCc1cc(F)ccc1F`, the “% inhibition” value is listed as “% inhibition = 24”.
`Nc1ncc(-c2ccc(C(=O)N3CCC(N4CCCC4)CC3)cc2)cc1OCc1ccc(F)c(F)c1`: the “% inhibition” value is given as “% inhibition = 19”.
Regarding `Cc1noc(C)c1COc1cc(-c2ccc(C(=O)N3CCC(N4CCCC4)CC3)cc2)cnc1N`, the “% inhibition” value was “% inhibition = 10”.
Consider `Nc1ncc(-c2ccc(C(=O)N3CCC(N4CCCC4)CC3)cc2)cc1OCc1ccc(Cl)s1`, for which the “% inhibition” value was “% inhibition = 19”.
For `Nc1ncc(-c2ccc(C(=O)N3CCC(N4CCCC4)CC3)cc2)cc1OCc1ccncc1`, the “% inhibition” value is “% inhibition = 10”.
Consider `Nc1ncc(-c2ccc(C(=O)N3CCC(N4CCCC4)CC3)cc2)cc1OCc1ccc(OCc2ccccc2)cc1`, for which the “% inhibition” value is “% inhibition = 49”.
Regarding `COc1ccc(OC)c(COc2cc(-c3ccc(C(=O)N4CCC(N5CCCC5)CC4)cc3)cnc2N)c1`, the “% inhibition” value is recorded as “% inhibition = 19”.
For the compound `Nc1ncc(-c2ccc(C(=O)N3CCC(N4CCCC4)CC3)cc2)cc1OCc1nsc(Cl)n1`, the “% inhibition” value was “% inhibition = 5”.
On to `Nc1ncc(-c2ccc(C(=O)N3CCC(N4CCCC4)CC3)cc2)cc1OCc1nnsc1Cl`, for which the “% inhibition” value is “% inhibition = 10”.
`COc1cc(COc2cc(-c3ccc(C(=O)N4CCC(N5CCCC5)CC4)cc3)cnc2N)cc(OC)c1OC`: the “% inhibition” value was “% inhibition = 10”.
For `Nc1ncc(-c2ccc(C(=O)N3CCC(N4CCCC4)CC3)cc2)cc1OCc1cc(Cl)cc(Cl)c1`, the “% inhibition” value is reported as “% inhibition = 19”.
For `Nc1ncc(-c2ccc(C(=O)N3CCC(N4CCCC4)CC3)cc2)cc1OCc1cccc(Oc2ccccc2)c1` the value was “% inhibition = 34”.
As for `Nc1ncc(-c2ccc(C(=O)N3CCC(N4CCCC4)CC3)cc2)cc1OCc1cccc(Cl)c1Cl`, the entry is “% inhibition = 40”; as for `Cc1ccc(COc2cc(-c3ccc(C(=O)N4CCC(N5CCCC5)CC4)cc3)cnc2N)cc1Cl`, “% inhibition = 26”.
On to `Nc1ncc(-c2ccc(C(=O)N3CCC(N4CCCC4)CC3)cc2)cc1OCc1cc(Cl)ccc1Cl`, for which the “% inhibition” value is recorded as “% inhibition = 26”.
For `Nc1ncc(-c2ccc(C(=O)N3CCC(N4CCCC4)CC3)cc2)cc1OCc1nc(CS(=O)(=O)c2ccccn2)no1`, the “% inhibition” value was “% inhibition = 9”.
`Nc1ncc(-c2ccc(C(=O)N3CCC(N4CCCC4)CC3)cc2)cc1OCc1cc(-c2c(Cl)cccc2Cl)no1`: the “% inhibition” value is recorded as “% inhibition = 14”.
For the compound `CC(=O)N(c1ccc(C)cc1)c1nc(COc2cc(-c3ccc(C(=O)N4CCC(N5CCCC5)CC4)cc3)cnc2N)cs1`, the “% inhibition” value is given as “% inhibition = 9”.
Turning to `CC(Oc1cc(-c2ccc(C(=O)N3CCC(N4CCCC4)CC3)cc2)cnc1N)c1ccccc1` (stereo not shown), the “% inhibition” value is “% inhibition = 10”.
For `Nc1ncc(-c2ccc(C(=O)N3CCC(N4CCCC4)CC3)cc2)cc1OCc1cccc(OC(F)(F)F)c1` the value was “% inhibition = 13”; for `Cc1cc(COc2cc(-c3ccc(C(=O)N4CCC(N5CCCC5)CC4)cc3)cnc2N)nc(-c2ccc(C(F)(F)F)cn2)n1`, “% inhibition = 8”; for `Nc1ncc(-c2ccc(C(=O)N3CCC(N4CCCC4)CC3)cc2)cc1OCc1cc(F)ccc1Br`, “% inhibition = 24”.
Turning to `Cc1cc(C)cc(COc2cc(-c3ccc(C(=O)N4CCC(N5CCCC5)CC4)cc3)cnc2N)c1`, the “% inhibition” value is listed as “% inhibition = 14”.
As for `COc1cccc(COc2cc(-c3ccc(C(=O)N4CCC(N5CCCC5)CC4)cc3)cnc2N)c1`, the “% inhibition” value is listed as “% inhibition = 15”.
On to `Nc1ncc(-c2ccc(C(=O)N3CCC(N4CCCC4)CC3)cc2)cc1OCc1ccc(Cl)cc1`, for which the “% inhibition” value was “% inhibition = 15”.
As for `Nc1ncc(-c2ccc(C(=O)N3CCC(N4CCCC4)CC3)cc2)cc1OCc1cccc(Cl)c1F`, the entry is “% inhibition = 28”.
On to `Nc1ncc(-c2ccc(C(=O)N3CCC(N4CCCC4)CC3)cc2)cc1OCc1ccc(Cl)c(Cl)c1`, for which the “% inhibition” value is “% inhibition = 26”.
With `Nc1ncc(-c2ccc(C(=O)N3CCC(N4CCCC4)CC3)cc2)cc1OCc1cc(F)c(F)cc1F`, the “% inhibition” value was “% inhibition = 12”.
As to `Nc1ncc(-c2ccc(C(=O)N3CCC(N4CCCC4)CC3)cc2)cc1OCc1ccc(F)c(F)c1F`, the “% inhibition” value is reported as “% inhibition = 19”.
Regarding `Nc1ncc(-c2ccc(C(=O)N3CCC(N4CCCC4)CC3)cc2)cc1OCc1ccc(C(F)(F)F)cc1C(F)(F)F`, the “% inhibition” value is on record as “% inhibition = 12”.
For `Nc1ncc(-c2ccc(C(=O)N3CCC(N4CCCC4)CC3)cc2)cc1OCc1c(F)ccc(F)c1F` the value was “% inhibition = 30”.
As for `Nc1ncc(-c2ccc(C(=O)N3CCC(N4CCCC4)CC3)cc2)cc1OCc1ccc(C(F)(F)F)cc1`, the entry is “% inhibition = 10”.
With `Cc1cccc(COc2cc(-c3ccc(C(=O)N4CCC(N5CCCC5)CC4)cc3)cnc2N)c1F`, the “% inhibition” value is listed as “% inhibition = 28”.
For the compound `CC(Oc1cc(-c2ccc(C(=O)N3CCC(N4CCCC4)CC3)cc2)cnc1N)c1ccccc1C(F)(F)F` (stereo not shown), the “% inhibition” value is recorded as “% inhibition = 21”.
For `CC(=O)Nc1nc(COc2cc(-c3ccc(C(=O)N4CCC(N5CCCC5)CC4)cc3)cnc2N)cs1`, the “% inhibition” value is listed as “% inhibition = 9”.
For `Nc1ncc(-c2ccc(C(=O)N3CCC(N4CCCC4)CC3)cc2)cc1OCc1nc2ccccc2[nH]1`, the “% inhibition” value was “% inhibition = 4”.
For `Nc1ncc(-c2ccc(C(=O)N3CCC(N4CCCC4)CC3)cc2)cc1OCc1noc(-c2ccccc2)n1` the value was “% inhibition = 16”; for `CC(C)Cc1noc(COc2cc(-c3ccc(C(=O)N4CCC(N5CCCC5)CC4)cc3)cnc2N)n1`, “% inhibition = 12”.
For `Nc1ncc(-c2ccc(C(=O)N3CCC(N4CCCC4)CC3)cc2)cc1OCc1nc(-c2ccccc2)n[nH]1` the value was “% inhibition = 2”.
For the compound `Nc1ncc(-c2ccc(C(=O)N3CCC(N4CCCC4)CC3)cc2)cc1OCc1ccc(Cl)cc1Br`, the “% inhibition” value was “% inhibition = 28”.
For the compound `Cc1cnccc1COc1cc(-c2ccc(C(=O)N3CCC(N4CCCC4)CC3)cc2)cnc1N`, the “% inhibition” value is recorded as “% inhibition = 11”.
As for `CCc1nc(COc2cc(-c3ccc(C(=O)N4CCC(N5CCCC5)CC4)cc3)cnc2N)no1`, the “% inhibition” value is on record as “% inhibition = 5”.
On to `Nc1ncc(-c2ccc(C(=O)N3CCC(N4CCCC4)CC3)cc2)cc1OCc1nc(NC2CC2)c2ccccc2n1`, for which the “% inhibition” value is on record as “% inhibition = 6”.
On to `Nc1ncc(-c2ccc(C(=O)N3CCC(N4CCCC4)CC3)cc2)cc1OCc1nc(NCCO)c2ccccc2n1`, for which the “% inhibition” value is reported as “% inhibition = 7”.
For `CCOC(=O)c1nc(COc2cc(-c3ccc(C(=O)N4CCC(N5CCCC5)CC4)cc3)cnc2N)no1`, the “% inhibition” value is “% inhibition = 8”.
As for `CNC(=O)c1ccc(OC)c(-c2noc(OCc3cc(-c4ccc(C(=O)N5CCC(N6CCCC6)CC5)cc4)cnc3N)n2)c1`, the entry is “% inhibition = 11”; as for `Nc1ncc(-c2ccc(C(=O)N3CCC(N4CCCC4)CC3)cc2)cc1OCc1nc(-c2ccc(C(=O)N3CCCC3)cc2)no1`, “% inhibition = 11”.
Consider `Nc1ncc(-c2ccc(C(=O)N3CCC(N4CCCC4)CC3)cc2)cc1OCc1nc(-c2cccc(C(=O)Nc3ccc(F)cc3)c2)no1`, for which the “% inhibition” value is “% inhibition = 64”.
Consider `CC(C)NC(=O)c1ccc(-c2noc(COc3cc(-c4ccc(C(=O)N5CCC(N6CCCC6)CC5)cc4)cnc3N)n2)cc1`, for which the “% inhibition” value is reported as “% inhibition = 18”.
